Test results: paper PMC11678425, “(-)-Syringaresinol Exerts an Antidepressant-like Activity in Mice by Noncompetitive Inhibition of the Serotonin Transporter” (Pharmaceuticals, 2024)

How the values were obtained:
[1] = target: T1, hSERT E493N (Homo sapiens, UniProt P31645, E493N); test: APP^+ uptake, hSERT E493N; assay type: cell-based; conditions: S2 site mutant, read-out: SYR IC50 for Transport
T1 construct: forward and reverse primers were used to amplify a full-length hSERT; expressed in transfected cells; host or cells: HeLa cells, transient, pcDNA3.1

[2] = target: T2, hSERT E494Q (Homo sapiens, UniProt P31645, E494Q); test: APP^+ uptake, hSERT E494Q; assay type: cell-based; conditions: S2 site mutant, read-out: SYR IC50 for Transport
T2 construct: forward and reverse primers were used to amplify a full-length hSERT; expressed in transfected cells; host or cells: HeLa cells, transient, pcDNA3.1

[3] = target: T3, hSERT P499G (Homo sapiens, UniProt P31645, P499G); test: APP^+ uptake, hSERT P499G; assay type: cell-based; conditions: S2 site mutant, read-out: SYR IC50 for Transport
T3 construct: forward and reverse primers were used to amplify a full-length hSERT; expressed in transfected cells; host or cells: HeLa cells, transient, pcDNA3.1
T3 sequence (P31645 whole entry P499G): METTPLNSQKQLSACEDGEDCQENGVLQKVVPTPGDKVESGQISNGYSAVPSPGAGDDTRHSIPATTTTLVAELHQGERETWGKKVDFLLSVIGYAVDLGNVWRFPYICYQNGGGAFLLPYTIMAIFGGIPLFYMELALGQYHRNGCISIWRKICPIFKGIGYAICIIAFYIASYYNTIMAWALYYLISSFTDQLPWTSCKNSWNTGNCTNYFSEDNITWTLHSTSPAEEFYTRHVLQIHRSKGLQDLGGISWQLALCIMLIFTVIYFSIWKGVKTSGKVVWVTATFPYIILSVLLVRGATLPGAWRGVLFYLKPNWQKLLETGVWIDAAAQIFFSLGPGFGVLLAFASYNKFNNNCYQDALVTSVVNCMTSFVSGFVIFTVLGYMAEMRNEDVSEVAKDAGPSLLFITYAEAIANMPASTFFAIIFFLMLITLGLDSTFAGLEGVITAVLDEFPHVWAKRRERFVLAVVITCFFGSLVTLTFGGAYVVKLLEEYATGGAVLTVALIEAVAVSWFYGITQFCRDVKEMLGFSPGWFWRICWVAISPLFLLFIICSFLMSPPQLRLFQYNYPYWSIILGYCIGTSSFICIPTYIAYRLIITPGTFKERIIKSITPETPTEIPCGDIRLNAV

[4] = target: T4, hSERT F556A (Homo sapiens, UniProt P31645, F556A); test: APP^+ uptake, hSERT F556A; assay type: cell-based; conditions: S2 site mutant, read-out: SYR IC50 for Transport
T4 construct: forward and reverse primers were used to amplify a full-length hSERT; expressed in transfected cells; host or cells: HeLa cells, transient, pcDNA3.1

[5] = target: T5, hSERT S559A (Homo sapiens, UniProt P31645, S559A); test: APP^+ uptake, hSERT S559A; assay type: cell-based; conditions: S2 site mutant, read-out: SYR IC50 for Transport
T5 construct: forward and reverse primers were used to amplify a full-length hSERT; expressed in transfected cells; host or cells: HeLa cells, transient, pcDNA3.1
T5 sequence (P31645 whole entry S559A): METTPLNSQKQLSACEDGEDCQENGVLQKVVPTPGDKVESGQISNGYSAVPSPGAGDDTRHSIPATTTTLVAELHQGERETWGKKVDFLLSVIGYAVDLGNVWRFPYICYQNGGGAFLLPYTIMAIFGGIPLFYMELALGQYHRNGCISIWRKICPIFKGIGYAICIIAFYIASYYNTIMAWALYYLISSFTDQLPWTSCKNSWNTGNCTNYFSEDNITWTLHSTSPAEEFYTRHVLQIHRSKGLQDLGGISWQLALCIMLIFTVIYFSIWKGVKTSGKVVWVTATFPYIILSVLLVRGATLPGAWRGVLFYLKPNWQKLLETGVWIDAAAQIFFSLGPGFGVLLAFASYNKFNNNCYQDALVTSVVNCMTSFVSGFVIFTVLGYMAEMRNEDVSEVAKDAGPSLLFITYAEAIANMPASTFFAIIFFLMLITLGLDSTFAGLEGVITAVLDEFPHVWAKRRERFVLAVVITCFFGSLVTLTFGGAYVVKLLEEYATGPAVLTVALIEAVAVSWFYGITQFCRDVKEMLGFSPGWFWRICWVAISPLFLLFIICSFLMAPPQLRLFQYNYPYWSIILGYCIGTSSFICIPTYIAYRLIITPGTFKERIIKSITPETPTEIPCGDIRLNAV

[6] = target: T6, hSERT L563A (Homo sapiens, UniProt P31645, L563A); test: APP^+ uptake, hSERT L563A; assay type: cell-based; conditions: S2 site mutant, read-out: SYR IC50 for Transport
T6 construct: forward and reverse primers were used to amplify a full-length hSERT; expressed in transfected cells; host or cells: HeLa
T6 sequence (P31645 whole entry L563A): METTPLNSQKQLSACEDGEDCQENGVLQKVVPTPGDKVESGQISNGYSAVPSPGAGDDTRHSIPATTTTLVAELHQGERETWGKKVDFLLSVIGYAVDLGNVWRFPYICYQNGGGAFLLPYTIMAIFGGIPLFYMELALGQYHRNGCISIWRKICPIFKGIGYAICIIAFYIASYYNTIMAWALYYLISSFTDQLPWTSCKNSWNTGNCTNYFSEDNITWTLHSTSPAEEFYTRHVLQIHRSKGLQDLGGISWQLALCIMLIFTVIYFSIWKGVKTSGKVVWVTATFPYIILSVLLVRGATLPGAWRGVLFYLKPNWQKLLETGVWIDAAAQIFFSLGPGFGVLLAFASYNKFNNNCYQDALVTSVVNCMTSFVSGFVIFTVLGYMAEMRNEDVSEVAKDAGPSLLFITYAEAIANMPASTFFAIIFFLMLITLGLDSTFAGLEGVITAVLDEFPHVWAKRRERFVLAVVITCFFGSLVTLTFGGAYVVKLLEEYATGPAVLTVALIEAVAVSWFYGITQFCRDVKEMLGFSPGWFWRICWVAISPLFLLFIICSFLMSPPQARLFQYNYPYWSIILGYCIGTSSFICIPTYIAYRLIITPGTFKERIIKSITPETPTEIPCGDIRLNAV

[7] = target: T7, hSERT L565A (Homo sapiens, UniProt P31645, L565A); test: APP^+ uptake, hSERT L565A; assay type: cell-based; conditions: S2 site mutant, read-out: SYR IC50 for Transport
T7 construct: forward and reverse primers were used to amplify a full-length hSERT; expressed in transfected cells; host or cells: HeLa

[8] = target: T8, hSERT Y579A (Homo sapiens, UniProt P31645, Y579A); test: APP^+ uptake, hSERT Y579A; assay type: cell-based; conditions: S2 site mutant, read-out: SYR IC50 for Transport
T8 construct: forward and reverse primers were used to amplify a full-length hSERT; expressed in transfected cells; host or cells: HeLa

[9] = target: T9, hSERT T583A (Homo sapiens, UniProt P31645, T583A); test: APP^+ uptake, hSERT T583A; assay type: cell-based; conditions: S2 site mutant, read-out: SYR IC50 for Transport
T9 construct: forward and reverse primers were used to amplify a full-length hSERT; expressed in transfected cells; host or cells: HeLa

[10] = target: T10, hSERT WT (Homo sapiens, UniProt P31645); test: ASP^+ binding, hSERT WT; conditions: digitonin-permeabilized cells, read-out: SYR IC50 for Binding
T10 construct: forward and reverse primers were used to amplify a full-length hSERT; expressed in transfected cells; host or cells: HeLa cells (CCL-2), transient, pcDNA3.1

[11] = target: T11, hSERT P560G (Homo sapiens, UniProt P31645, P560G); test: ASP^+ binding, hSERT P560G; conditions: S2 site mutant, read-out: SYR IC50 for Binding
T11 construct: forward and reverse primers were used to amplify a full-length hSERT; expressed in transfected cells; host or cells: HeLa cells, transient, pcDNA3.1
T11 sequence (P31645 whole entry P560G): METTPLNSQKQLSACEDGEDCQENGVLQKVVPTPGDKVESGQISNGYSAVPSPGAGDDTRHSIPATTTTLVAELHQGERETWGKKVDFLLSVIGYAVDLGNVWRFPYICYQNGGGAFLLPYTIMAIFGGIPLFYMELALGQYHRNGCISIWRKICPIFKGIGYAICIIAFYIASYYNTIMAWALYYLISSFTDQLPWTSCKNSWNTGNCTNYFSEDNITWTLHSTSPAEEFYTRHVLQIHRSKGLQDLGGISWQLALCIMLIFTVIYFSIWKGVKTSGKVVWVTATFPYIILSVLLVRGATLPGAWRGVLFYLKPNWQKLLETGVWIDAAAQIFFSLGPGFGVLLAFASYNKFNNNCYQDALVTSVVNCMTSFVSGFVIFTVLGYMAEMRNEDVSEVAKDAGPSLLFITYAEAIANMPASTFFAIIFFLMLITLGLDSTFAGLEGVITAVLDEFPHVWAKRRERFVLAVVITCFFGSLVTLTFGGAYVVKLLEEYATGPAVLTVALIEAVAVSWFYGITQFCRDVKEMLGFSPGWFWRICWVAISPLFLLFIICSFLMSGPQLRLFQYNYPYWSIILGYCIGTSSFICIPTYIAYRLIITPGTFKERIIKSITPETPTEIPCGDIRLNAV

[12] = target: T12, hSERT P561G (Homo sapiens, UniProt P31645, P561G); test: ASP^+ binding, hSERT P561G; conditions: S2 site mutant, read-out: SYR IC50 for Binding
T12 construct: forward and reverse primers were used to amplify a full-length hSERT; expressed in transfected cells; host or cells: HeLa
T12 sequence (P31645 whole entry P561G): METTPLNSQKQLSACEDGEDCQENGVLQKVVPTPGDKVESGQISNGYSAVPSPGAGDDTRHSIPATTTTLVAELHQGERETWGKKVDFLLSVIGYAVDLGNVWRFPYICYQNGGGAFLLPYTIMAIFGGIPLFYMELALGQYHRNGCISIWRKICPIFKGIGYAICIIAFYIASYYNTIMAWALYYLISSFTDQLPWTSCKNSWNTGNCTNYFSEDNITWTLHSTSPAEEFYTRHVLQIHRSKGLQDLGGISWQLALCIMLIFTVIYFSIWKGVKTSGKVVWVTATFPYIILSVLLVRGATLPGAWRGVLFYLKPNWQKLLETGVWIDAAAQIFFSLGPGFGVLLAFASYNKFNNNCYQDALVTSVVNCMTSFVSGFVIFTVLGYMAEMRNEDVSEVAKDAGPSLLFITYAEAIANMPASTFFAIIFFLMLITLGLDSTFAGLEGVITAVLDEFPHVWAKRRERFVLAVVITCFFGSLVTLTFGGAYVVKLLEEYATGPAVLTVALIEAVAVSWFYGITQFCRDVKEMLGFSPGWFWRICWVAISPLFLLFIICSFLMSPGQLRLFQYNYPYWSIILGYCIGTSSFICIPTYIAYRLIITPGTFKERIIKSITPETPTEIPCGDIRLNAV

[13] = target: T6, hSERT L563A; test: ASP^+ binding, hSERT L563A; conditions: S2 site mutant, read-out: SYR IC50 for Binding
[14] = target: T13, hSERT Y95F (Homo sapiens, UniProt P31645, Y95F); test: ASP^+ binding, hSERT Y95F; conditions: S1 site mutant, read-out: SYR IC50 for Binding
T13 construct: forward and reverse primers were used to amplify a full-length hSERT; expressed in transfected cells; host or cells: HeLa
T13 sequence (P31645 whole entry Y95F): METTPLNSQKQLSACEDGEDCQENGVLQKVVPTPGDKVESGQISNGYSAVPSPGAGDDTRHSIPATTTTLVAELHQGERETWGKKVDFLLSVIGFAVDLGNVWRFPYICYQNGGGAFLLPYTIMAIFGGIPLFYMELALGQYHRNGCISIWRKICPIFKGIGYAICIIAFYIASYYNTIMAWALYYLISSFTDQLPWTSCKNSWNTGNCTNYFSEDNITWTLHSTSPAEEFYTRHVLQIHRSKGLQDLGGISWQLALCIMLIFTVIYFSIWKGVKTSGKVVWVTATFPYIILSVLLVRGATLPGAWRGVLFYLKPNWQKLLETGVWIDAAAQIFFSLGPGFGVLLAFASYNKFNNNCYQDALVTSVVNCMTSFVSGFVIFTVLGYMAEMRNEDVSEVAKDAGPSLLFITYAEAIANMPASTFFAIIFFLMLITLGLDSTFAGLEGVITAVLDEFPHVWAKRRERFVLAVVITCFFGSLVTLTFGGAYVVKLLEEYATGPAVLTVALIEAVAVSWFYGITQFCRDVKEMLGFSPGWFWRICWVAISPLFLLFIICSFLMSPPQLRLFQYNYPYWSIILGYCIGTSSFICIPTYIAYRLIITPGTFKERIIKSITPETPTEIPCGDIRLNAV

[15] = target: T14, hSERT I172F (Homo sapiens, UniProt P31645, I172F); test: ASP^+ binding, hSERT I172F; conditions: S1 site mutant, read-out: SYR IC50 for Binding
T14 construct: forward and reverse primers were used to amplify a full-length hSERT; expressed in transfected cells; host or cells: HeLa
T14 sequence (P31645 whole entry I172F): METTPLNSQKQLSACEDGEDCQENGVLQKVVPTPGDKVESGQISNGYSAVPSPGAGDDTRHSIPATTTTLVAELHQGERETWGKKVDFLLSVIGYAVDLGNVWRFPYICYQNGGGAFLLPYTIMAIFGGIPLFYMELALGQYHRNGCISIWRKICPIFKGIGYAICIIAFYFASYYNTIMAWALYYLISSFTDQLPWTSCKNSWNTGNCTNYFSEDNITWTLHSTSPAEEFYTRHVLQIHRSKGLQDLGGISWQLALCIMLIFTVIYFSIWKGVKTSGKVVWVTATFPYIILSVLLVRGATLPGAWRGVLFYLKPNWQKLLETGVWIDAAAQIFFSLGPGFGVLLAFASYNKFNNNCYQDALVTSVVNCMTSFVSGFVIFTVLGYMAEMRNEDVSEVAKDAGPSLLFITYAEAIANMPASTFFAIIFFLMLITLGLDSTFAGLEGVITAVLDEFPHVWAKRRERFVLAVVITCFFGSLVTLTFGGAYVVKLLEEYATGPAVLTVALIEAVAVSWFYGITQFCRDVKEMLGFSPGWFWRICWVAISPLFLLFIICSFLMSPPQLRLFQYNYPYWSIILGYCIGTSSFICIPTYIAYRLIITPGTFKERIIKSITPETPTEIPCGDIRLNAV

[16] = target: T15, hSERT S438T (Homo sapiens, UniProt P31645, S438T); test: ASP^+ binding, hSERT S438T; conditions: S1 site mutant, read-out: SYR IC50 for Binding
T15 construct: forward and reverse primers were used to amplify a full-length hSERT; expressed in transfected cells; host or cells: HeLa
T15 sequence (P31645 whole entry S438T): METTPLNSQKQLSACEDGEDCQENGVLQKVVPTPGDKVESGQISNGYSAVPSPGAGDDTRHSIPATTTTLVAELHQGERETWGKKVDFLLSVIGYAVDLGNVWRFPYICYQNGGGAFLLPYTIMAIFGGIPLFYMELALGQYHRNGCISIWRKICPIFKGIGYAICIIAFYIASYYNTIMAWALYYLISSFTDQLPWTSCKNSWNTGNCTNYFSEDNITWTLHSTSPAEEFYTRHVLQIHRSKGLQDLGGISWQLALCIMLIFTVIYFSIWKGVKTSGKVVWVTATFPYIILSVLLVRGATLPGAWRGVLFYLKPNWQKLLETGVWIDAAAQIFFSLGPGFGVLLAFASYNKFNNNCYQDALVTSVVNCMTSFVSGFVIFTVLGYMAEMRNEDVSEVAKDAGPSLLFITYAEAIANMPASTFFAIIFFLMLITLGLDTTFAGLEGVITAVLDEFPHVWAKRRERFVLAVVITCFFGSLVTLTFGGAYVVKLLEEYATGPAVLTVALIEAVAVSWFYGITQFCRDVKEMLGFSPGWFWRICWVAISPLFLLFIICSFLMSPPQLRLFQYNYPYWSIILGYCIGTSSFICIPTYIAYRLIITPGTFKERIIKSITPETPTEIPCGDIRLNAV

[17] = tested on: hSERT S1 mutants (Y95F, I172F, S438T); test: APP^+ uptake, S1 site mutants compared with WT; assay type: cell-based, human
Method: (§1) HeLa cells were cultured in Dulbecco’s Modified Eagle’s Medium supplemented with 10% fetal bovine serum, 100 units/mL penicillin, and 100 μg/mL streptomycin at 37 °C in a humidified 5% CO2 incubator. Cells grown at ~70% confluence in a 6 cm culture dish were transfected with hSERT cDNA in pcDNA3.1 by lipofectamine 2000. Transfected cells were incubated for 12 h at 37 °C with 5% CO2 and then transferred into 96-well plates. After being grown for an additional 12–16 h, the cells were then assayed for APP^+ uptake or ASP^+ binding.
Measurement of transport or ligand binding activity of SERT was performed by using its fluorescent substrate (APP^+) or ligand (ASP^+), respectively. The cells transiently expressing WT or mutants of hSERT were applied for various treatments. Briefly, the cells were washed twice with 100 μL KRH buffer containing 20 mM HEPES (Neofroxx, Einhausen, Germany), pH 7.4, 120 mM NaCl, 1.3 mM KCl, 2.2 mM CaCl2, 1.2 mM MgSO4, and 0.1% (w/v) glucose. APP^+ uptake was measured by adding 100 μL KRH buffer containing 2 μM APP^+ and incubating for 5 min at 22 °C. Excess APP^+ was then removed by 3× rapid washing with 100 μL KRH buffer each time. The extent of APP^+ accumulated in the cells was determined by fluorescence spectrometry with an Infinite 200 Pro microplate reader (Tecan, Männedorf, Switzerland). […]

[18] = tested on: hSERT S1 mutants (Y95F, I172F, S438T); test: ASP^+ binding, S1 site mutants compared with WT; design: species or system human; conditions: Tyr95 to Phe, Ile172 to Phe, Ser438 to Thr
Method: as §1
ASP^+ binding to SERT expressed on the cell surface was measured with digitonin-permeabilized cells as described previously. The cells expressing WT or mutants of hSERT were incubated with 10 μM ASP^+ in the presence of 25 μg/mL digitonin at 22 °C for 5 min. After removing excess ASP^+ by 3× rapid washing, ASP^+ fluorescence retained in the cell membrane was determined by fluorescence spectrometry.
hSERT mutants were generated using the Mut Express II Fast Mutagenesis kit (Vazyme, Nanjing, China). Briefly, forward and reverse primers were used to amplify a full-length hSERT. The PCR products were then digested with restriction enzymes, excised from agarose gels, and ligated into pcDNA3.1. All mutations were confirmed by full-length DNA sequencing.

[19] = tested on: CUMS mice; conditions: all tested dosages, i.p.
[20] = target: hSERT (Homo sapiens, UniProt P31645); assay type: cell-based; design: forward and reverse primers were used to amplify a full-length hSERT; expressed in transfected cells; host or cells: HeLa

For COc1cc([C@@H]2OC[C@@H]3[C@H]2CO[C@H]3c2cc(OC)c(O)c(OC)c2)cc(OC)c1O [SYR, (-)-syringaresinol], the IC50 [1] was 9.16 ± 0.34 µM, the IC50 [2] was 12 ± 2.17 µM and the IC50 [3] was 11 ± 1.43 µM. For the same molecule, the IC50 [4] was 7.39 ± 1.12 µM, the IC50 [5] was 19.5 ± 1.46 µM and the IC50 [6] was 6.28 ± 0.57 µM. The IC50 [7] was 9.98 ± 1.22 µM, the IC50 [8] was 16.3 ± 1.06 µM and the IC50 [9] was 8.68 ± 1.4 µM. The IC50 [10] was 0.96 ± 0.02 µM, the IC50 [11] was 14.7 ± 0.26 µM and the IC50 [12] was 131 ± 5.72 µM. The IC50 [13] was 39 ± 0.92 µM, the IC50 [14] was 1.21 ± 0.01 µM and the IC50 [15] was 1.51 ± 0.04 µM. For the same molecule, the IC50 [16] was 2.32 ± 0.02 µM, the “SYR IC50 for APP^+ uptake relative to WT” value [17] was 3- to 10 fold and the “effect of S1 site mutations on SYR inhibition of ASP^+ binding” value [18] was “little effect”. For the same molecule, the fatality rate [19] was “zero fatality rate” and the “hSERT expression on the cell surface” value [20] was “did not alter”.
